Measurements from paper PMC9100275, “Development of 1-(4-(Substituted)piperazin-1-yl)-2-((2-((4-methoxybenzyl)thio)pyrimidin-4-yl)oxy)ethanones That Target Poly (ADP-Ribose) Polymerase in Human Breast Cancer Cells” (Molecules, 2022).
Like-named read-outs stand apart in the source and are kept apart here.

Tests used:
PARP1 [1] = biological target: T1, PARP1 (Homo sapiens, UniProt P09874); assay: colorimetric PARP activity assay with recombinant human PARP enzyme; % inhibition at […] ([…] at […]); type: biochemical
T1 sequence (P09874 2-1014): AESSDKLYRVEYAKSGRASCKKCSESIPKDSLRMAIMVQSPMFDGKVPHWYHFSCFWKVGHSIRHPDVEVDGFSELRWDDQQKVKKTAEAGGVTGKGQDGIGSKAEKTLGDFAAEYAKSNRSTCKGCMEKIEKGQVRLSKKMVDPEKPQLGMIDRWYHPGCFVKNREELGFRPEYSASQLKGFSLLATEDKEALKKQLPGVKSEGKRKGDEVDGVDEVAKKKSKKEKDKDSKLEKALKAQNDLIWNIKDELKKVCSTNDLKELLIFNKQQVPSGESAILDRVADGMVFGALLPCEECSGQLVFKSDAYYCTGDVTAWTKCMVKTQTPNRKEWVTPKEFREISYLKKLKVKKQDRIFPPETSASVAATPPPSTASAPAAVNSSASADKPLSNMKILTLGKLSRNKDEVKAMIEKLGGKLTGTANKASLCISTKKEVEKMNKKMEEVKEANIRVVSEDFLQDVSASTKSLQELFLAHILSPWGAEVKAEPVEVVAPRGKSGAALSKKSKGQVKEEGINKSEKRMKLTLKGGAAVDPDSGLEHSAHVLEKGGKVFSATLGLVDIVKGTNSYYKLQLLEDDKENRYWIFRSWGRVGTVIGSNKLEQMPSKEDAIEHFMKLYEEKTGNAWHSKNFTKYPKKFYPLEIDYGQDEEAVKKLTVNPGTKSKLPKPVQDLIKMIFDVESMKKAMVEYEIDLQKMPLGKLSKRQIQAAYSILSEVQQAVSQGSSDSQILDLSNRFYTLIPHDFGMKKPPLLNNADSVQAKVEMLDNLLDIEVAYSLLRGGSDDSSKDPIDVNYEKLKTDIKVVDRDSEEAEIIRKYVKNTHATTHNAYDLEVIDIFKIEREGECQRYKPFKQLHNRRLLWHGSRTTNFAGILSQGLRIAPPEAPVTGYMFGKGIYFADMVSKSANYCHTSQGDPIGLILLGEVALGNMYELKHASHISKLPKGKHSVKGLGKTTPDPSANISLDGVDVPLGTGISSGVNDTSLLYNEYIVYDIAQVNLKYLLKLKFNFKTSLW

PARP1 [2] = biological target: T1, PARP1; assay: as above; type: biochemical; remark: listed apart in the source

## COc1ccc(CSc2nccc(OCC(=O)N3CCN(c4ccc(C)cc4)CC3)n2)cc1 [5e, 2-((2-((4-Methoxybenzyl)thio)pyrimidin-4-yl)oxy)-1-(4-(p-tolyl)piperazin-1-yl)ethanone]
PARP1 [1]
  inhibition at 10 µM: 53%

## COc1ccc(CSc2nccc(OCC(=O)N3CCN(c4cccc(Cl)c4Cl)CC3)n2)cc1 [5a, 1-(4-(2,3-Dichlorophenyl)piperazin-1-yl)-2-((2-((4-methoxybenzyl)thio)pyrimidin-4-yl)oxy)ethanone]
PARP1 [2]
  inhibition at 10 µM: 70.3%
